Laboratory results: BigSolDB 2.1

N#CCc1ccc([N+](=O)[O-])cc1
Settings	solubility (mole fraction)
in 1,4-dioxane, 288.15 K	0.0461
in 1,4-dioxane, 293.15 K	0.0567
in 1,4-dioxane, 298.15 K	0.0715
in 1,4-dioxane, 303.15 K	0.0888
in 1,4-dioxane, 308.15 K	0.109
in 1,4-dioxane, 313.15 K	0.134
in 1,4-dioxane, 318.15 K	0.161
in 1,4-dioxane, 323.15 K	0.193
in 1,4-dioxane, 328.15 K	0.232
in 1,4-dioxane, 333.15 K	0.283
in 2-butanone, 278.15 K	0.0458
in 2-butanone, 283.15 K	0.0534
in 2-butanone, 288.15 K	0.0617
in 2-butanone, 293.15 K	0.0717
in 2-butanone, 298.15 K	0.0828
in 2-butanone, 303.15 K	0.0953
in 2-butanone, 308.15 K	0.109
in 2-butanone, 313.15 K	0.126
in 2-butanone, 318.15 K	0.144
in 2-butanone, 323.15 K	0.166
in 2-butanone, 328.15 K	0.189
in 2-butanone, 333.15 K	0.216
in acetic acid, 293.15 K	0.014
in acetic acid, 298.15 K	0.0166
in acetic acid, 303.15 K	0.0195
in acetic acid, 308.15 K	0.0231
in acetic acid, 313.15 K	0.0272
in acetic acid, 318.15 K	0.0319
in acetic acid, 323.15 K	0.0375
in acetic acid, 328.15 K	0.0438
in acetic acid, 333.15 K	0.0516
in acetone, 278.15 K	0.057
in acetone, 283.15 K	0.0658
in acetone, 288.15 K	0.0753
in acetone, 293.15 K	0.0859
in acetone, 298.15 K	0.0974
in acetone, 303.15 K	0.111
in acetone, 308.15 K	0.126
in acetone, 313.15 K	0.143
in acetone, 318.15 K	0.162
in acetone, 323.15 K	0.183
in acetone, 328.15 K	0.206
in acetonitrile, 278.15 K	0.0361
in acetonitrile, 283.15 K	0.0437
in acetonitrile, 288.15 K	0.0519
in acetonitrile, 293.15 K	0.0628
in acetonitrile, 298.15 K	0.0749
in acetonitrile, 303.15 K	0.0899
in acetonitrile, 308.15 K	0.105
in acetonitrile, 313.15 K	0.124
in acetonitrile, 318.15 K	0.145
in acetonitrile, 323.15 K	0.169
in acetonitrile, 328.15 K	0.196
in acetonitrile, 333.15 K	0.228
in cyclohexane, 283.15 K	9.17e-05
in cyclohexane, 288.15 K	0.000111
in cyclohexane, 293.15 K	0.000134
in cyclohexane, 298.15 K	0.000166
in cyclohexane, 303.15 K	0.000209
in cyclohexane, 308.15 K	0.000258
in cyclohexane, 313.15 K	0.000327
in cyclohexane, 318.15 K	0.000409
in cyclohexane, 323.15 K	0.000505
in cyclohexane, 328.15 K	0.000639
in cyclohexane, 333.15 K	0.000822
in ethanol, 278.15 K	0.00183
in ethanol, 283.15 K	0.00223
in ethanol, 288.15 K	0.00279
in ethanol, 293.15 K	0.00352
in ethanol, 298.15 K	0.0043
in ethanol, 303.15 K	0.00536
in ethanol, 308.15 K	0.00654
in ethanol, 313.15 K	0.00788
in ethanol, 318.15 K	0.00986
in ethanol, 323.15 K	0.0122
in ethanol, 328.15 K	0.0149
in ethanol, 333.15 K	0.0178
in ethyl acetate, 278.15 K	0.122
in ethyl acetate, 283.15 K	0.13
in ethyl acetate, 288.15 K	0.14
in ethyl acetate, 293.15 K	0.149
in ethyl acetate, 298.15 K	0.159
in ethyl acetate, 303.15 K	0.17
in ethyl acetate, 308.15 K	0.182
in ethyl acetate, 313.15 K	0.196
in ethyl acetate, 318.15 K	0.21
in ethyl acetate, 323.15 K	0.228
in ethyl acetate, 328.15 K	0.246
in ethyl acetate, 333.15 K	0.268
in ethylbenzene, 278.15 K	0.00564
in ethylbenzene, 283.15 K	0.00685
in ethylbenzene, 288.15 K	0.00784
in ethylbenzene, 293.15 K	0.00969
in ethylbenzene, 298.15 K	0.0118
in ethylbenzene, 303.15 K	0.0135
in ethylbenzene, 308.15 K	0.0163
in ethylbenzene, 313.15 K	0.0201
in ethylbenzene, 318.15 K	0.0238
in ethylbenzene, 323.15 K	0.0284
in ethylbenzene, 328.15 K	0.0343
in ethylbenzene, 333.15 K	0.0446
in isobutanol, 278.15 K	0.000842
in isobutanol, 283.15 K	0.00108
in isobutanol, 288.15 K	0.00139
in isobutanol, 293.15 K	0.00178
in isobutanol, 298.15 K	0.00229
in isobutanol, 303.15 K	0.00299
in isobutanol, 308.15 K	0.00383
in isobutanol, 313.15 K	0.00492
in isobutanol, 318.15 K	0.0063
in isobutanol, 323.15 K	0.00806
in isobutanol, 328.15 K	0.0102
in isobutanol, 333.15 K	0.0129
in isopropanol, 278.15 K	0.000901
in isopropanol, 283.15 K	0.00119
in isopropanol, 288.15 K	0.00153
in isopropanol, 293.15 K	0.00193
in isopropanol, 298.15 K	0.00252
in isopropanol, 303.15 K	0.00332
in isopropanol, 308.15 K	0.00424
in isopropanol, 313.15 K	0.00535
in isopropanol, 318.15 K	0.00683
in isopropanol, 323.15 K	0.00864
in isopropanol, 328.15 K	0.011
in isopropanol, 333.15 K	0.0138
in methanol, 278.15 K	0.00237
in methanol, 283.15 K	0.00274
in methanol, 288.15 K	0.00336
in methanol, 293.15 K	0.0043
in methanol, 298.15 K	0.00547
in methanol, 303.15 K	0.00695
in methanol, 308.15 K	0.00865
in methanol, 313.15 K	0.011
in methanol, 318.15 K	0.0136
in methanol, 323.15 K	0.017
in methanol, 328.15 K	0.0212
in methanol, 333.15 K	0.0262
in n-butanol, 278.15 K	0.00128
in n-butanol, 283.15 K	0.00147
in n-butanol, 288.15 K	0.0019
in n-butanol, 293.15 K	0.00241
in n-butanol, 298.15 K	0.00306
in n-butanol, 303.15 K	0.00388
in n-butanol, 308.15 K	0.00501
in n-butanol, 313.15 K	0.00643
in n-butanol, 318.15 K	0.00807
in n-butanol, 323.15 K	0.0102
in n-butanol, 328.15 K	0.0129
in n-butanol, 333.15 K	0.0159
in n-propanol, 278.15 K	0.00133
in n-propanol, 283.15 K	0.00165
in n-propanol, 288.15 K	0.00204
in n-propanol, 293.15 K	0.0026
in n-propanol, 298.15 K	0.00332
in n-propanol, 303.15 K	0.0042
in n-propanol, 308.15 K	0.00526
in n-propanol, 313.15 K	0.00673
in n-propanol, 318.15 K	0.00847
in n-propanol, 323.15 K	0.0107
in n-propanol, 328.15 K	0.0135
in n-propanol, 333.15 K	0.017
in toluene, 278.15 K	0.00791
in toluene, 283.15 K	0.00966
in toluene, 288.15 K	0.0117
in toluene, 293.15 K	0.0148
in toluene, 298.15 K	0.0177
in toluene, 303.15 K	0.0208
in toluene, 308.15 K	0.0252
in toluene, 313.15 K	0.0298
in toluene, 318.15 K	0.0354
in toluene, 323.15 K	0.0432
in toluene, 328.15 K	0.053
in toluene, 333.15 K	0.0657
in water, 278.15 K	1.5e-05
in water, 283.15 K	1.94e-05
in water, 288.15 K	2.48e-05
in water, 293.15 K	2.98e-05
in water, 298.15 K	3.55e-05
in water, 303.15 K	4.27e-05
in water, 308.15 K	5.2e-05
in water, 313.15 K	6.4e-05
in water, 318.15 K	7.89e-05
in water, 323.15 K	9.63e-05
in water, 328.15 K	0.000117
in water, 333.15 K	0.000142
